Assay results as given in PMC9658545, “From Nature to Synthetic Compounds: Novel 1(N),2,3 Trisubstituted-5-oxopyrrolidines Targeting Multiple Myeloma Cells” (International Journal of Molecular Sciences, 2022).
Where two headings read alike, the source gives them in different places.

Assays:
RPMI 8226 cells [1] = test: MTT assay of cell viability in RPMI 8226 cells; type: cell-based, Human; settings: for profile in MTT and Trypan blue tests compared with racemate: enantiomers of 13, 10, 100 and 500 µM; for fold more active than the reference compound Hib-ester: after 24 h of treatment
Experimental: RPMI 8226 cells were treated with different concentrations of all compounds (10, 100 and 500 µM) at 24 h. The concentrations have been chosen based on the results previously obtained with Hib-ester. MTT assay was performed to assess cell viability and calculate the IC50 (Table 1). For compounds not showing a significant reduction of cell viability at the concentration of 500 µM, the IC50 was not calculated, and they have been considered not effective. Untreated cells were used as control (CTRL).
Human multiple myeloma RPMI 8226 cells were cultured in RPMI 1640 medium supplemented with 10% fetal bovine serum, 1% L-glutamine and 1% penicillin and streptomycin (Euroclone, Italy). Human glioblastoma U87-MG cells were cultured in DMEM low glucose supplemented with 10% fetal bovine serum, 1% L-glutamine and 1% penicillin and streptomycin (Euroclone, Italy). Cells were incubated in a humidified incubator at 37 °C and 5% CO2. A stock solution of all compounds in DMSO (50 mM) was prepared and then directly diluted in culture medium.
Cells were seeded in 96-well plates at a density of 1 × 10^4 cells/well and were treated after 24 h with RA, AM or SU molecules. After 24 h, a 3-(4,5-dimethylthiazol-2-yl)-2,5-diphenyltetrazolium bromide (MTT, Sigma Aldrich, United States) solution was added to each well to reach a final concentration of 0.5 mg/mL. After 4 h of incubation (4 h for RPMI 8226 cells), formazan salt was solubilized in ethanol and absorbance was measured at 570 nm in a microplate reader (BMG-Labtech, Ortenberg, Germany).

proteasome = target: T1, proteasome (Homo sapiens, UniProt P28074); test: Proteasome activity assay on lysates of treated RPMI 8226 cells (Suc-LLVY-AMC substrate); type: cell-based; settings: for IC50: RPMI 8226 cells treated 24 h, read-out: IC50 (proteasome inhibition); for proteasome inhibition activity: after 24 h, 10, 100 and 500 µM
T1 construct: endogenous in cells; host or cells: RPMI 8226 (human multiple myeloma)
T1 sequence (P28074 60-263): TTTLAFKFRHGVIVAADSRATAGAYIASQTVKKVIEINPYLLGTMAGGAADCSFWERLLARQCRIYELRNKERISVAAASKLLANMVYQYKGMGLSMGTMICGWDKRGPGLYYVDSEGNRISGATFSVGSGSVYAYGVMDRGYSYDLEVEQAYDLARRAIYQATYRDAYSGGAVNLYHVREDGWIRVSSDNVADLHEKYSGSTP
Experimental: RPMI 8226 cells treated with Bortezomib (BTZ) 1, 5 and 10 nM were used as positive control for all experiments (Figure S2, Supplementary Information).
Cells not used in the Trypan blue assay were lysed to assess proteasome activity. Briefly, cells were resuspended in a lysis buffer (50 mM Hepes Ph 7.5, 150 mM NaCl, 10% glycerol, 1% Triton X-100, 1.5 mM MgCl2, 5 mM EGTA) and were mechanically lysed with a vortex. Obtained protein lysates were centrifuged at 13,500 RPM for 15 min and were quantified using the Bradford method. Some 40 µg of proteins were then loaded in black-96-well plate to perform the proteasome activity assay. In each well, 7.6 mg/mL proteasome substrate (N-Succinyl-Leu-Leu-Val-Tyr-7-Amido-4-Methylcoumarin, Sigma Aldrich, United States) and proteasome buffer (250 mM Hepes pH 7.5, 5 mM EDTA pH 8.0, 0.5% NP-40, 0.01% SDS) were added to the proteins. Fluorescence was measured after 2 h of incubation in a microplate reader (excitation 380 nm, emission 460 nm; BMG-Labtech, Ortenberg, Germany).
RPMI 8226 cells were treated with different concentrations (10, 100 and 500 µM) of each compound and, after 24 hours, proteasome activity assay was performed.
Supplementary Figure S1. Proteasome activity of RPMI 8226 cells treated with (2R,3R/2S,3S)-13, 14, 16 and 20. Proteasome activity was evaluated in cells treated for 24 hours with different concentrations (10, 100 and 500 µM) of compounds. The graphs represent the mean proteasome activity ± SD, compared to untreated controls, arbitrarily set to 100%. ** p < 0.01 vs CTRL.
RPMI 8226 cells treated with BTZ 1, 5 and 10 nM were used as positive control for all experiments. […]
The graphs represent the mean cell number ± SD of viable and dead cells. ** p < 0.01 vs CTRL; C) Proteasome activity of RPMI 8226 cells treated with BTZ. Proteasome activity was evaluated in cells treated for 24 hours with different concentrations (1, 5 and 10 nM) of BTZ. The graphs represent the mean proteasome activity ± SD, compared to untreated controls, arbitrarily set to 100%. ** p < […]

RPMI 8226 cells [2] = test: MTT assay of cell viability in RPMI 8226 cells; type: cell-based, Human; settings: for change of MTT efficacy over time: 24, 48 and 72 h; for IC50: Homo sapiens
RPMI 8226 cells [3] = test: Trypan blue vital count assay (viable and dead cells); type: cell-based, Human; settings: 100 µM
Experimental: RPMI 8226 cells treated with Bortezomib (BTZ) 1, 5 and 10 nM were used as positive control for all experiments (Figure S2, Supplementary Information). Cells were seeded in 6-well plates at a density of 2.5 × 10^5 cells/well and were treated after 24 h with different concentrations of RA molecules. After 24 h of treatment, cells were collected and stained with Trypan blue vital dye (Sigma Aldrich, Burlington, VT, USA). Viable and dead cells were then counted in a hemocytometer under a light microscope.

[4] = 24 h, MTT assay, concentrations 10, 100 and 500 µM, n.e.* = compounds not effective at 500 µM
[5] = Homo sapiens, RPMI-8226, 24 h, MTT assay, concentrations 10, 100 and 500 µM, n.e.* = compounds not effective at 500 µM, read-out: IC50 μM RPMI8226
[6] = Homo sapiens, RPMI-8226, 24 h of treatment, read-out: IC50 (MTT)
[7] = 24 h, MTT assay, concentrations 10, 100 and 500 µM, n.e.* = compounds not effective at 500 µM, read-out: IC50 μM RPMI8226
[8] = 24 h of treatment, read-out: IC50 (MTT)

1-Benzyl-2-(3,5-dimethoxyphenyl)-5-oxopyrrolidine-3-carboxylic Acid [(2R,3R/2S,3S)-15]
IC50 μM RPMI8226 (RPMI 8226 cells [1]; [4]): n.e.*

O=C(O)C1CC(=O)N(Cc2ccccc2)C1c1ccccc1 (single isomer, unassigned; (-)) [(−)-(2R,3R)-13]
profile in MTT and Trypan blue tests compared with racemate (RPMI 8226 cells [1]): profile comparable with racemate | IC50 (proteasome): 90 ± 8 µM | activity relative to the opposite enantiomer in the biological assays (proteasome; enantiomers of 13): twofold more active

COC(=O)[C@@H]1CC(=O)O[C@@H]1c1ccccc1 [(2R,3R/2S,3S)-2, Methyl (2S,3R)-5-Oxo-2phenyltetrahydrofuran-3-Carboxylate]
IC50 μM RPMI8226 (RPMI 8226 cells [1]; [4]): n.e.*

CC(C)CN1C(=O)CC(C(=O)O)C1c1ccccc1 [(2R,3R/2S,3S)-9, 1-Isobutyl-5-oxo-2-phenylpyrrolidine 3-Carboxylic Acid]
IC50 μM RPMI8226 (RPMI 8226 cells [1]; [4]): n.e.* | melting point: 120.6 to 122.7 °C

O=C(O)C1CC(=O)N(Cc2ccccc2)C1c1ccccc1 (racemic) [(2R,3R/2S,3S)-13, 1-Benzyl-5-oxo-2-phenylpyrrolidine 3-Carboxylic Acid]
IC50 (RPMI 8226 cells [1]; [5]): 169 ± 21 µM | IC50 (RPMI 8226 cells [1]; [6]): < 350 µM | fold more active than the reference compound Hib-ester (RPMI 8226 cells [1]): at least 6 fold | proteasome inhibition activity (proteasome): most effective | change of MTT efficacy over time (RPMI 8226 cells [2]): time-dependent effect | IC50 (RPMI 8226 cells [2]; RPMI-8226, 48 h): 85 µM | IC50 (RPMI 8226 cells [2]; RPMI-8226, 72 h): 15 µM | fold more active than Hib-ester in reducing RPMI 8226 cells growth (RPMI 8226 cells [2]; after 24 and 72 h of treatment): twelve-fold more active | cell death (Trypan blue vital count) (RPMI 8226 cells [3]): significant increase in cell death

COC(=O)C1CCC(=O)N(Cc2ccccc2)C1c1ccccc1 [(2R,3R/2S,3S)-20, Methyl 1-Benzyl-6-oxo-2-phenylpiperidine-3-carboxylate]
IC50 (RPMI 8226 cells [1]; [5]): 152 ± 29 µM | IC50 (RPMI 8226 cells [1]; [6]): < 350 µM | fold more active than the reference compound Hib-ester (RPMI 8226 cells [1]): at least 6 fold | change of MTT efficacy over time (RPMI 8226 cells [2]): did not show a significant increase in efficacy over time

COC(=O)C1CNC(=O)C1 (racemic) [(S/R)-6]
IC50 μM RPMI8226 (RPMI 8226 cells [1]; [4]): n.e.*

CCCCN1CC(C(=O)OC)CC1=O (racemic) [(S/R)-5, Methyl 1-Butyl-5-oxopyrrolidine-3-carboxylate]
IC50 μM RPMI8226 (RPMI 8226 cells [1]; [4]): n.e.*

COC(=O)C1CC(=O)NC1C(=O)OC [(2R,3R/2S,3S)-8, Dimethyl 5-Oxopyrolidine-2,3-dicarboxylate]
IC50 μM RPMI8226 (RPMI 8226 cells [1]; [4]): n.e.*

O=C(O)C1CC(=O)N(Cc2ccccc2)C1c1ccccc1 (single isomer, unassigned; (+)) [(+)-(2S,3S)-13]
profile in MTT and Trypan blue tests compared with racemate (RPMI 8226 cells [1]): less antiproliferative properties | IC50 (proteasome): 189 ± 17 µM

O=C1CC(C(=O)O)C(c2ccccc2)O1 [(2R,3R/2S,3S)-1]
IC50 μM RPMI8226 (RPMI 8226 cells [1]; [4]): n.e.*

O=C(O)C1CCC(=O)N(Cc2ccccc2)C1c1ccccc1 [(2R,3R/2S,3S)-19, 1-Benzyl-6-oxo-2-phenylpiperidine 3-Carboxylic Acid]
IC50 μM RPMI8226 (RPMI 8226 cells [1]; [4]): n.e.*

COC(=O)C1CC(=O)N(C)C1 (racemic) [(S/R)-7, Methyl 1-Methyl-5-oxopyrrolidine-3-carboxylate]
IC50 μM RPMI8226 (RPMI 8226 cells [1]; [4]): n.e.*

CCCCN1CC(C(=O)O)CC1=O (racemic) [(S/R)-4]
IC50 μM RPMI8226 (RPMI 8226 cells [1]; [4]): n.e.*

COC(=O)C1CCC(=O)N(CC(C)C)C1c1ccccc1 [(2R,3R/2S,3S)-18, Methyl 1-Isobutyl-6-oxo-2-phenylpiperidine-3-carboxylate]
IC50 (RPMI 8226 cells [1]; [5]): 301 ± 29 µM | IC50 (RPMI 8226 cells [1]; [6]): < 350 µM | fold more active than the reference compound Hib-ester (RPMI 8226 cells [1]): at least 6 fold

CC(C)CN1C(=O)CCC(C(=O)O)C1c1ccccc1 [(2R,3R/2S,3S)-17, 1-Isobutyl-6-oxo-2-phenylpiperidine 3-Carboxylic Acid]
IC50 μM RPMI8226 (RPMI 8226 cells [1]; [4]): n.e.*

Methyl 2-(3,5-Dimethoxyphenyl)-1-isobutyl-5-oxopyrrolidine-3-carboxylate [(2R,3R/2S,3S)-12]
IC50 (RPMI 8226 cells [1]; [7]): 263 ± 41 µM | IC50 (RPMI 8226 cells [1]; [8]): < 350 µM | fold more active than the reference compound Hib-ester (RPMI 8226 cells [1]): at least 6 fold

COC(=O)C1CC(=O)N(CC(C)C)C1c1ccccc1 [(2R,3R/2S,3S)-10, Methyl 1-Isobutyl-5-oxo-2-phenylpyrrolidine-3-carboxylate]
IC50 (RPMI 8226 cells [1]; [5]): 265 ± 49 µM | IC50 (RPMI 8226 cells [1]; [6]): < 350 µM | fold more active than the reference compound Hib-ester (RPMI 8226 cells [1]): at least 6 fold

COC(=O)[C@@H]1CCC(=O)N1 [(S)-3, (S)-Methyl-5-oxopyrrolidine-2-carboxylate]
IC50 μM RPMI8226 (RPMI 8226 cells [1]; [4]): n.e.*

COC(=O)C1CC(=O)N(Cc2ccccc2)C1c1ccccc1 [(2R,3R/2S,3S)-14, Methyl 1-Benzyl-5-oxo-2-phenylpyrrolidine-3-carboxylate]
IC50 (RPMI 8226 cells [1]; [5]): 61 ± 12 µM | IC50 (RPMI 8226 cells [1]; [6]): < 350 µM | fold more active than the reference compound Hib-ester (RPMI 8226 cells [1]): 34 fold | fold more active than the reference compound Hib-ester (RPMI 8226 cells [1]; listed as 14): at least 6 fold | proteasome inhibition at the lowest evaluated concentration (proteasome; 10 µM, 24 h): significant inhibition | proteasome inhibition activity (proteasome): most effective | change of MTT efficacy over time (RPMI 8226 cells [2]): time-dependent effect | IC50 (RPMI 8226 cells [2]; RPMI-8226, 48 h): 43 µM | IC50 (RPMI 8226 cells [2]; RPMI-8226, 72 h): 34 µM | cell death (Trypan blue vital count) (RPMI 8226 cells [3]): significant increase in cell death

Methyl 1-Benzyl-2-(3,5-dimethoxyphenyl)-5-oxopyrrolidine-3-carboxylate [(2R,3R/2S,3S)-16]
IC50 (RPMI 8226 cells [1]; [7]): 138 ± 27 µM | IC50 (RPMI 8226 cells [1]; [8]): < 350 µM | fold more active than the reference compound Hib-ester (RPMI 8226 cells [1]): at least 6 fold | change of MTT efficacy over time (RPMI 8226 cells [2]): did not show a significant increase in efficacy over time

2-(3,5-Dimethoxyphenyl)-1-isobutyl-5-oxopyrrolidine-3-carboxylic Acid [(2R,3R/2S,3S)-11]
IC50 μM RPMI8226 (RPMI 8226 cells [1]; [4]): n.e.*
